Structures can show the parent of a compound that is named as a salt.
What follows are compounds tested against CDK2/CCNE1 (Homo sapiens, UniProt P24941) (assay: CDK2 homogeneous time-resolved fluorescence (HTRF) assay). Settings: 3 nM CDK2/CCNE1, 1 mM ATP, 50 nM ULight-eIF4E-binding protein 1 (Thr37/46) peptide, 60 min at 23° C.; read-out: CDK2/CCNE IC50 <25 nM.
Assay type: biochemical
Method: A CDK homogeneous time-resolved fluorescence (HTRF) assay was used to assess the potency of the compounds described herein.
To an untreated 384-well microtiter plate (ProxiPlate) was added 100 nL 100× test compound in DMSO and 5 μL 2×CDK enzyme in assay buffer (50 mM HEPES, 1 mM EGTA, 10 mM MgCl2, 0.01% Tween 20, 2 mM DTT). The plate was centrifuged at 800 RPM for 1 min then incubated for 20 min at 23° C. 2.5 μL per well of 4×ATP and 2.5 μL 4×ULight™-eIF4E-binding protein 1 (Thr37/46) Peptide) substrate were added to all wells. After addition, the plates were centrifuged at 800 RPM for 1 min. The plates were incubated at 23° C. for 60 min. 5 μL per well 3×EDTA solution were added to each well to stop the reaction. 2.5 μL 7×LANCE Ultra Europium-anti-phospho-eTF4E-binding protein 1 (Thr37/46 antibody) were added to each well and the plate was centrifuged for 1 min at 800 RPM. The plate was incubated for 60 min at 23° C. Fluorescence was read at 340 nm excitation and 665 nm emission on an EnVision 2105 fluorescence reader. The final concentrations of reagents in the activity assay were 3 nM CDK2/CCNE1, 1 mM ATP, 50 nM ULight™-eIF4E-binding protein 1 (Thr37/46) Peptide substrate, 1% DMSO, 10 mM EDTA, and 2 nM LANCE Ultra Europium-anti-phospho-eTF4E-binding protein 1 (Thr37/46).
Dose-response titrations were conducted by using an 11-point, three-fold serial dilution scheme typically starting at 1 μM. Signals were reported as fluorescence units at 665 nm or the ratio of fluorescence units at 665 nm/fluorescence units at 615 nm. Signals are referred to below as “Lance signals”.
Using this assay, the IC50 values of example compounds were determined.
With OCc1cccc(Nc2ncc3cnn(CC4CCCCC4)c3n2)c1 [Compound 20, (3-((1-(cyclohexylmethyl)-1H-pyrazolo[3,4-d]pyrimidin-6-yl)amino)phenyl)methanol] the IC50 was less than 25 nM. For O=Cc1cccc(Nc2ncc3cnn(CC4CCCCC4)c3n2)c1 [Compound 26, 3-((1-(cyclohexylmethyl)-1H-pyrazolo[3,4-d]pyrimidin-6-yl)amino)benzaldehyde], the IC50 was less than 25 nM. C=CS(=O)(=O)c1ccc(Nc2ncc3cnn(CC4CCCCC4)c3n2)cn1 [Compound 34, 1-(cyclohexylmethyl)-N-(6-(vinylsulfonyl)pyridin-3-yl)-1H-pyrazolo[3,4-d]pyrimidin-6-amine] showed an IC50 of less than 25 nM. With OCCc1cccc(Nc2ncc3cnn(CC4CCCCC4)c3n2)c1 [Compound 35, 2-(3-((1-(cyclohexylmethyl)-1H-pyrazolo[3,4-d]pyrimidin-6-yl)amino)phenyl)ethan-1-ol] the IC50 was less than 25 nM.

Same assay, conditions: 3 nM CDK2/CCNE1, 1 mM ATP, 50 nM ULight-eIF4E-binding protein 1 (Thr37/46) peptide, 60 min at 23° C.; read-out: CDK2/CCNE IC50 >150 nM
Work on CN1CCN(CCn2ncc3cnc(Nc4ccc(S(C)(=O)=O)cc4)nc32)CC1 [Compound 15, 1-(2-(4-methylpiperazin-1-yl)ethyl)-N-(4-(methylsulfonyl)phenyl)-1H-pyrazolo[3,4-d]pyrimidin-6-amine] yielded an IC50 greater than 150 nM. CS(=O)(=O)c1ccc(Nc2ncc3cnn(C[C@H]4CC[C@@H](C(=O)O)CC4)c3n2)cc1 [Compound 16, (1s,4s)-4-((6-((4-(methylsulfonyl)phenyl)amino)-1H-pyrazolo[3,4-d]pyrimidin-1-yl)methyl)cyclohexane-1-carboxylic acid] gave an IC50 greater than 150 nM. CS(=O)(=O)c1ccc(Nc2ncc3cnn(C[C@H]4CC[C@@H](C(=O)Oc5ccc(F)cc5)CC4)c3n2)cc1 [Compound 18, 4-Fluorophenyl (1s,4s)-4-((6-((4-(methylsulfonyl)phenyl)amino)-1H-pyrazolo[3,4-d]pyrimidin-1-yl)methyl)cyclohexane-1-carboxylate] showed an IC50 greater than 150 nM. For Cc1nn(CC2CCCCC2)c2nc(Nc3ccc(S(C)(=O)=O)cc3)ncc12 [Compound 19, 1-(cyclohexylmethyl)-3-methyl-N-(4-(methylsulfonyl)phenyl)-1H-pyrazolo[3,4-d]pyrimidin-6-amine], the IC50 was greater than 150 nM. In the case of C=CS(=O)(=O)c1ncc(Nc2ncc3cnn(CC4CCCCC4)c3n2)cc1Cl [Compound 31, N-(5-chloro-6-(vinylsulfonyl)pyridin-3-yl)-1-(cyclohexylmethyl)-1H-pyrazolo[3,4-d]pyrimidin-6-amine], the IC50 is reported as greater than 150 nM. C#CC(=O)c1ccc(Nc2ncc3cnn(CC4CCCCC4)c3n2)cc1 [Compound 38, 1-(4-((1-(cyclohexylmethyl)-1H-pyrazolo[3,4-d]pyrimidin-6-yl)amino)phenyl)prop-2-yn-1-one] was tested, and the IC50 was greater than 150 nM. CS(=O)(=O)c1ccc(Nc2ncc3cnn(C4CC(=O)C4)c3n2)cc1 [Compound 39, 3-(6-((4-(methylsulfonyl)phenyl)amino)-1H-pyrazolo[3,4-d]pyrimidin-1-yl)cyclobutan-1-one] was tested, and the IC50 was greater than 150 nM.

Same assay, conditions: column 25-150 nM; 3 nM CDK2/CCNE1, 1 mM ATP, 50 nM ULight-eIF4E-binding protein 1 (Thr37/46) peptide, 60 min at 23° C.; read-out: CDK2/CCNE IC50 25-150 nM
CS(=O)(=O)c1ccc(Nc2ncc3cnn(CC4CCCCC4)c3n2)cc1 [Compound 12, 1-(cyclohexylmethyl)-N-(4-(methylsulfonyl)phenyl)-1H-pyrazolo[3,4-d]pyrimidin-6-amine] gave an IC50 of 25 to 150 nM. In the case of CS(=O)(=O)c1ccc(Nc2ncc3cnn(CC4CCCC4)c3n2)cc1 [Compound 13, 1-(cyclopentylmethyl)-N-(4-(methylsulfonyl)phenyl)-1H-pyrazolo[3,4-d]pyrimidin-6-amine], the IC50 is reported as 25 to 150 nM. CS(=O)(=O)c1ccc(Nc2ncc3cnn(C4CCNCC4)c3n2)cc1 [Compound 14, N-(4-(methylsulfonyl)phenyl)-1-(piperidin-4-yl)-1H-pyrazolo[3,4-d]pyrimidin-6-amine] was tested, and the IC50 was 25 to 150 nM. CS(=O)(=O)c1ccc(Nc2ncc3cnn(C[C@H]4CC[C@@H](CO)CC4)c3n2)cc1 [Compound 17] was tested, and the IC50 was 25 to 150 nM. C=CS(=O)(=O)c1ncc(Nc2ncc3cnn(CC4CCCCC4)c3n2)cn1 [Compound 21, 1-(cyclohexylmethyl)-N-(2-(vinylsulfonyl)pyrimidin-5-yl)-1H-pyrazolo[3,4-d]pyrimidin-6-amine] gave an IC50 of 25 to 150 nM. OCCc1ccc(Nc2ncc3cnn(CC4CCCCC4)c3n2)cc1 [Compound 22, 2-(4-((1-(cyclohexylmethyl)-1H-pyrazolo[3,4-d]pyrimidin-6-yl)amino)phenyl)ethan-1-ol] showed an IC50 of 25 to 150 nM. With C=CS(=O)(=O)c1ccc(Nc2ncc3cnn(CC4CCCCC4)c3n2)cc1C [Compound 23, 1-(cyclohexylmethyl)-N-(3-methyl-4-(vinylsulfonyl)phenyl)-1H-pyrazolo[3,4-d]pyrimidin-6-amine] the IC50 was 25 to 150 nM. With OCc1ccc(Nc2ncc3cnn(CC4CCCCC4)c3n2)cc1 [Compound 24, (4-((1-(cyclohexylmethyl)-1H-pyrazolo[3,4-d]pyrimidin-6-yl)amino)phenyl)methanol] the IC50 was 25 to 150 nM. In the case of O=Cc1ccc(Nc2ncc3cnn(CC4CCCCC4)c3n2)cc1 [Compound 25, 4-((1-(cyclohexylmethyl)-1H-pyrazolo[3,4-d]pyrimidin-6-yl)amino)benzaldehyde], the IC50 is reported as 25 to 150 nM. Work on CS(=O)(=O)c1ccc(Nc2ncc3cnn(C[C@H]4CC[C@@H](C=O)CC4)c3n2)cc1 [Compound 27, (1s,4s)-4-((6-((4-(methylsulfonyl)phenyl)amino)-1H-pyrazolo[3,4-d]pyrimidin-1-yl)methyl)cyclohexane-1-carbaldehyde] yielded an IC50 of 25 to 150 nM. With CS(=O)(=O)c1ccc(Nc2ncc3cnn(Cc4cccc5[nH]ccc45)c3n2)cc1 [Compound 29, 1-((1H-indol-4-yl)methyl)-N-(4-(methylsulfonyl)phenyl)-1H-pyrazolo[3,4-d]pyrimidin-6-amine] the IC50 was 25 to 150 nM. C=C(C)S(=O)(=O)c1ccc(Nc2ncc3cnn(CC4CCCCC4)c3n2)cc1 [Compound 30, 1-(cyclohexylmethyl)-N-(4-(prop-1-en-2-ylsulfonyl)phenyl)-1H-pyrazolo[3,4-d]pyrimidin-6-amine] was tested, and the IC50 was 25 to 150 nM. C=CS(=O)(=O)c1ccc(Nc2ncc3cnn(CC4CCCCC4)c3n2)cc1F [Compound 36, 1-(cyclohexylmethyl)-N-(3-fluoro-4-(vinylsulfonyl)phenyl)-1H-pyrazolo[3,4-d]pyrimidin-6-amine] showed an IC50 of 25 to 150 nM. C=CS(=O)(=O)c1c(F)cc(Nc2ncc3cnn(CC4CCCCC4)c3n2)cc1F [Compound 37, 1-(cyclohexylmethyl)-N-(3,5-difluoro-4-(vinylsulfonyl)phenyl)-1H-pyrazolo[3,4-d]pyrimidin-6-amine] showed an IC50 of 25 to 150 nM. CN(C)[C@H]1CC[C@@H](Cn2ncc3cnc(Nc4ccc(S(C)(=O)=O)cc4)nc32)CC1 [Compound 40, 1-(((1s,4s)-4-(dimethylamino)cyclohexyl)methyl)-N-(4-(methylsulfonyl)phenyl)-1H-pyrazolo[3,4-d]pyrimidin-6-amine formate] gave an IC50 of 25 to 150 nM. Compound CS(=O)(=O)c1ccc(Nc2ncc3cnn(C4CCC5(CC4)COC5)c3n2)cc1 [Compound 41, N-(4-(methylsulfonyl)phenyl)-1-(2-oxaspiro[3.5]nonan-7-yl)-1H-pyrazolo[3,4-d]pyrimidin-6-amine] has an IC50 of 25 to 150 nM. C=CS(=O)(=O)c1ccc(Nc2ncc3cnn(CC4CCCCC4)c3n2)cc1C(F)(F)F [Compound 42, 1-(cyclohexylmethyl)-N-(3-(trifluoromethyl)-4-(vinylsulfonyl)phenyl)-1H-pyrazolo[3,4-d]pyrimidin-6-amine] gave an IC50 of 25 to 150 nM.

— US20260306496A1, “CDK2 INHIBITOR PYRAZOLOPYRIMIDINE COMPOUNDS” (ALEKSIA THERAPEUTICS, INC., priority 2023, published 2026)
